From US20190365699A1, “Treatment of Kidney Tumors by Intratumoral Injection of Taxane Particles” (CRITITECH, INC., priority 2018, published 2019)
Read-outs that look alike come from different tables or passages of the source.

Assays:
[1] = Bulk density (not tapped); format: physicochemical; conditions: room temperature
Protocol: As used herein, the “specific surface area” (SSA) is the total surface area of the taxane particle per unit of taxane mass as measured by the Brunauer-Emmett-Teller (“BET”) isotherm by the following method: a known mass between 200 and 300 mg of the analyte is added to a 30 mL sample tube. […] The automated test is then carried out using the BETWIN® software package and the surface area of each sample is subsequently calculated. As will be understood by those of skill in the art, the “taxane particles” can include both agglomerated taxane particles and non-agglomerated taxane particles; since the SSA is determined on a per gram basis it takes into account both the larger agglomerated and smaller non-agglomerated taxane particles in the composition. The agglomerated taxane particles are defined herein as individual taxane particles that are formed by the agglomeration of smaller particles which fuse together forming the larger individual taxane particles, all of which occurs during the processing of the taxane particles. The BET specific surface area test procedure is a compendial method included in both the United States Pharmaceopeia and the European Pharmaceopeia. […]
The mass of the drug was measured to a nearest 0.1 mg, the volume was determined to the nearest 0.1 mL and the density calculated.

[2] = Paclitaxel dissolution study, USP Apparatus II; format: physicochemical
Protocol: Beads were transferred to a stainless steel mesh container and placed in the dissolution bath containing methanol/water 50/50 (v/v) media at 37° C., pH 7, and a USP Apparatus II (Paddle), operating at 75 rpm. […] Absorbance values of the samples were compared to those of standard solutions prepared in dissolution media to determine the amount of material dissolved. […] Absorbance values of the samples were compared to those of standard solutions prepared in dissolution media to determine the amount of material dissolved.
Beads were transferred to a stainless steel mesh container and placed in the dissolution bath containing methanol/water 50/50 (v/v) media at 37° C., pH 7, and a USP Apparatus II (Paddle), operating at 75 rpm. […] Absorbance values of the samples were compared to those of standard solutions prepared in dissolution media to determine the amount of material dissolved.

[3] = BET specific surface area analysis; format: physicochemical
Protocol: As used herein, the “specific surface area” (SSA) is the total surface area of the taxane particle per unit of taxane mass as measured by the Brunauer-Emmett-Teller (“BET”) isotherm by the following method: a known mass between 200 and 300 mg of the analyte is added to a 30 mL sample tube. […] The automated test is then carried out using the BETWIN® software package and the surface area of each sample is subsequently calculated. As will be understood by those of skill in the art, the “taxane particles” can include both agglomerated taxane particles and non-agglomerated taxane particles; since the SSA is determined on a per gram basis it takes into account both the larger agglomerated and smaller non-agglomerated taxane particles in the composition. The agglomerated taxane particles are defined herein as individual taxane particles that are formed by the agglomeration of smaller particles which fuse together forming the larger individual taxane particles, all of which occurs during the processing of the taxane particles. […]
A known mass between 200 and 300 mg of the analyte was added to a 30 mL sample tube. […] The automated test was then carried out using the BETWIN® software package and the surface area of each sample was subsequently calculated.

[4] = Docetaxel dissolution study, USP Apparatus II; format: physicochemical
Protocol: The procedures used to determine the dissolution rates are as follows. […] Beads were transferred to a stainless steel mesh container and placed in the dissolution bath containing methanol/water 50/50 (v/v) media at 37° C., pH 7, and a USP Apparatus II (Paddle), operating at 75 rpm. At 10, 20, 30, 60, and 90 minutes, a 5 mL aliquot was removed, filtered through a 0.22 μm filter and analyzed on a UV/VIS spectrophotometer at 227 nm. Absorbance values of the samples were compared to those of standard solutions prepared in dissolution media to determine the amount of material dissolved. […] At 5, 15, 30, 60, 120 and 225 minutes, a 5 mL aliquot was removed, filtered through a 0.22 μm filter, and analyzed on a UV/VIS spectrophotometer at 232 nm. Absorbance values of the samples were compared to those of standard solutions prepared in dissolution media to determine the amount of material dissolved.
At 5, 15, 30, 60, 120 and 225 minutes, a 5 mL aliquot was removed, filtered through a 0.22 μm filter, and analyzed on a UV/VIS spectrophotometer at 232 nm. Absorbance values of the samples were compared to those of standard solutions prepared in dissolution media to determine the amount of material dissolved.

[5] = test system: human renal cell adenocarcinoma (786-O cell line); test: H&E and immunohistochemical evaluation of xenograft tumors; format: in vivo, Rat (Rattus norvegicus); conditions: for morphologic and immunohistochemical appearance of tumor: IV, 3 weekly cycles, versus vehicle/control
Text: Tissue Collection: Primary Tumor (Inoculation site)—A final tumor measurement was taken prior to excision. Tumors were weighed after excision. Approximately ½ of each tumor (based on visual assessment) was flash frozen in 2-methylbutane on dry ice, the tumor piece was weighed when possible before it is flash frozen. The remaining was fixed in 10% neutral buffered formalin. Tumors were also collected from animals not reaching enrollment volume. Secondary Tumors—Any organ with visible tumors were collected and fixed in 10% neutral buffered formalin. Formalin fixed tissues were stored at room temperature. Frozen tissues were stored at −80° C. All tissue was stored for up to 3 months. Pictures of all tumors; primary and secondary if present, were taken.
Microscopic Examination: Tissues fixed with 10% NBF were embedded in paraffin. Each tumor was cut into 2-3 pieces and embedded and sectioned together.

[6] = Body weight and clinical observations in xenograft study; conditions: IV, group 6, initial dosage 5 mg/kg
Protocol: Individual Body Weights: Three times weekly (M, W, F) starting at the time of inoculation.
Macroscopic Examination: A necropsy was conducted on all animals dying spontaneously, euthanized in extremis or at the scheduled necropsy after 50 days post initiation of treatment. Animals euthanized in extremis or at study termination were euthanized by CO2 inhalation. Necropsy included examination of the external surface, all orifices and the thoracic, abdominal and pelvic cavities, including viscera. At the time of necropsy, a final body weight and body condition score was collected.

[7] = test system: human renal cell adenocarcinoma (786-O cell line); test: Drug efficacy in rat xenograft model, tumor volume; format: in vivo; conditions: IV, QW × 3, 2.5-5 mg/kg
[8] = Particle size analysis (light obscuration and laser diffraction); format: physicochemical
Text: The particle size of the taxane particles can be determined by a particle size analyzer instrument and the measurement is expressed as the mean diameter based on a number distribution (number). A suitable particle size analyzer instrument is one which employs the analytical technique of light obscuration, also referred to as photozone or single particle optical sensing (SPOS). A suitable light obscuration particle size analyzer instrument is the ACCUSIZER, such as the ACCUSIZER 780 SIS, available from Particle Sizing Systems, Port Richey, Fla. Another suitable particle size analyzer instrument is one which employs laser diffraction, such as the Shimadzu SALD-7101.
Particle size was analyzed by both light obscuration and laser diffraction methods.
The vials were vortexed for approximately 10 seconds and then sonicated in a sonic bath approximately 1 minute.
The vial was vortexed for approximately 10 seconds and then sonicated in a sonic bath for approximately 2 minutes. This suspension was used for laser diffraction analysis. Unused suspension was poured into a 125 mL particle-free plastic bottle, which was then filled to approximately 100 mL with filtered dispersant. The suspension was vortex for approximately 10 seconds and then sonicated in the sonic bath for approximately 2 minutes. This diluted suspension was used for light obscuration analysis. […]

CC(=O)O[C@H]1C(=O)[C@@]2(C)[C@H]([C@H](OC(=O)c3ccccc3)[C@]3(O)C[C@H](OC(=O)[C@H](O)[C@@H](NC(=O)c4ccccc4)c4ccccc4)C(C)=C1C3(C)C)[C@]1(OC(C)=O)CO[C@@H]1C[C@@H]2O [Paclitaxel Raw Material, paclitaxel]
Bulk Density (not tapped) [1]: 0.26 g/mL
Paclitaxel Dissolution time course ([2]; 0 minutes): 0.0%
Dissolution (30 min) ([2]; methanol/water 50/50 (v/v), 37° C., pH 7, 75 rpm, 30 min): 18%
Surface area (BET, SSA) [3]: 10.4 m^2/g
Surface area (BET, SSA) ([3]; listed as raw paclitaxel): 7.25 m^2/g

CC(=O)O[C@@]12CO[C@@H]1C[C@H](O)[C@@]1(C)C(=O)[C@H](O)C3=C(C)[C@@H](OC(=O)[C@H](O)[C@@H](NC(=O)OC(C)(C)C)c4ccccc4)C[C@@](O)([C@@H](OC(=O)c4ccccc4)[C@H]21)C3(C)C [docetaxel]
Docetaxel Dissolution time course ([4]; 0 minutes): 0.0%
Docetaxel Dissolution time course ([4]; 5 minutes): 3.2%
Docetaxel Dissolution time course ([4]; 15 minutes): 6.9%
Dissolution (30 min) ([4]; methanol/water 15/85 (v/v), 37° C., pH 7, 75 rpm, 30 min): 11%
animals with Mild lymphohistiocytic infiltrate density ([5]; H/E and CD11b, IV docetaxel 3 cycles, 2 animals): 2
animals with <5% of tissue showing necrosis ([5]; IV docetaxel 3 cycles, 2 animals): 2
animals with viable carcinoma >10 mm ([5]; IV docetaxel 3 cycles, 2 female rats): 2
morphologic and immunohistochemical appearance of tumor [5]: identical morphologic and immunohistochemical appearance to that seen in the control and IT vehicle groups
morphologic and immunohistochemical appearance of tumor ([5]; listed as Docetaxel): no difference
toxicity [6]: observed toxicity on day 7
tumor growth [7]: partial tumor growth inhibition compared to vehicle control
Number Mean [8]: 1.58 um
Volume Mean [8]: 5.05 um
